In patent US10323007B1, “N2N N4-disubstituted quinazoline-2,4-diamines and uses thereof” (University of South Florida, priority 2016, dated 2019):
In brackets after ≈: the same amount, converted by molar mass. Read-outs that look alike come from different tables or passages of the source. Each block holds one compound with its values, some of them ahead of it.

Experiments:
A. baumannii 1652 [1] = test: minimal bactericidal concentration (MBC) assay, strain 1652; type: cell-based; details: Acinetobacter baumannii, Table 8, read-out: MBC90 1652
Description: (§1) Lead quinazolines 4, 5, 26, 29, 27, and 30 were selected to be further evaluated for antimicrobial effects. The first assay utilized was a minimal bactericidal concentration (MBC) assay, to assess whether leads compounds were bacteriostatic or bactericidal. The six lead agents were screened to identify their MBC90 towards each of the six A. baumannii isolates used in the SAR studies (Table 8), however for simplicity only the representative data for isolate 1646 is detailed below (Table 6). […] Further to this, we were able to obtain complete eradication of bacterial growth for these two compounds at 1 μM for 24 and 5 μM for 25.
(§2) MIC and MBC assays were performed in this study as documented by us previously.^17,23,24,25 The A. baumannii strains used are detailed in Table 7.

human HepG2 cells = type: cell-based
Method: Cytotoxicity assays were performed using human HepG2 cells (human liver epithelial with hepatocellular carcinoma), as described by us previously.^17,24 Cells were cultured in Dulbecco's modified eagle medium (DMEM), supplemented with 10% fetal bovine serum and 1% penicillin-streptomycin for 3 days at 37° C. and 5% CO2. Cells were then diluted to 1×10^5 ml^−1 using fresh DMEM and added to 96 well tissue culture plates at a volume of 100 μL. Plates were incubated for 24 hours at 37° C. and 5% CO2, allowing the cells to adhere to the plastic. […] Plates were then incubated for 48 hours at 37° C. and 5% CO2. After 48 hours the DMEM was removed and 100 μL of new media was added containing MTT (3-(4, 5-dimethylthiazol-2-yl)-2, 5-diphenyltetrazolium bromide), followed by incubation for four hours at 37° C. and 5% CO2. […] Lead compounds were solvated in 100% DMSO for these studies, which served as the negative control. LD50 values were determined for each compound by comparison to vehicle only controls.

A. baumannii 1649 [2] = test: MIC assay, strain 1649; type: cell-based, Acinetobacter baumannii; details: Acinetobacter baumannii, strain 1649
Method: as §2

A. baumannii 1650 [3] = test: minimal bactericidal concentration (MBC) assay, strain 1650; type: cell-based; details: Acinetobacter baumannii, Table 8, read-out: MBC90 1650
Description: as §1, §2

A. baumannii 1650 [4] = test: MIC assay, strain 1650; type: cell-based, Acinetobacter baumannii; details: Acinetobacter baumannii, strain 1650
Method: as §2

A. baumannii 1649 [5] = test: minimal bactericidal concentration (MBC) assay, strain 1649; type: cell-based; details: Acinetobacter baumannii, Table 8, read-out: MBC90 1649
Description: as §1, §2

A. baumannii 1646 [6] = test: minimal bactericidal concentration (MBC) assay, strain 1646; type: cell-based, Acinetobacter baumannii
Description: as §1, §2

A. baumannii 1651 [7] = test: MIC assay, strain 1651; type: cell-based, Acinetobacter baumannii; details: Acinetobacter baumannii, strain 1651
Method: as §2

A. baumannii 1403 [8] = test: MIC assay, strain 1403; type: cell-based, Acinetobacter baumannii; details: Acinetobacter baumannii, strain 1403
Method: as §2

A. baumannii 1646 [9] = test: MIC assay, strain 1646; type: cell-based, Acinetobacter baumannii; details: Acinetobacter baumannii
Method: as §2

[10] = tested on: A. baumannii 1646 biofilm; test: biofilm eradication determination assay, strain 1646; type: cell-based, Acinetobacter baumannii
Method: (§3) These assays were performed as described by us previously,^26,24 as follows. Each of the A. baumannii strains were grown overnight in Mueller Hinton Broth (MHB). The next day these were used to seed fresh MHB to an OD600 of 0.5, with 150 μL then added to the wells of a 96 well plate and grown for 24 hours at 37° C. After 24 hours, the planktonic bacteria were carefully removed and fresh MHB was added with increasing concentrations of lead quinazolines. After incubation at 37° C. for 24 hours, planktonic cells were removed and biofilms were washed three times with phosphate buffered saline (PBS). Biofilms were then resuspended in PBS and plated for cell viability on tryptic soy agar. Biofilm recovery was assessed compared to no drug controls, and determined as percent eradication. This was used to determine MBEC90 values (Minimal Biofilm Eradication Concentration), where the viability of cells within the biofilm was reduced by 90%.

A. baumannii 1651 [11] = test: minimal bactericidal concentration (MBC) assay, strain 1651; type: cell-based; details: Acinetobacter baumannii, Table 8, read-out: MBC90 1651
Description: as §1, §2

[12] = tested on: A. baumannii 1651 biofilm; test: biofilm eradication determination assay, strain 1651; type: cell-based, Acinetobacter baumannii; details: 90% biofilm eradication, Table 8
Method: as §3

A. baumannii = test: MIC assay, A. baumannii isolates (strain not given); type: cell-based, Acinetobacter baumannii; details: Acinetobacter baumannii; most isolates besides the 1652 strain; read-out: MIC against most isolates
Method: as §2

A. baumannii 1652 [13] = test: MIC assay, strain 1652; type: cell-based, Acinetobacter baumannii; details: Acinetobacter baumannii, strain 1652
Method: as §2

A. baumannii 1403 [14] = test: minimal bactericidal concentration (MBC) assay, strain 1403; type: cell-based; details: Acinetobacter baumannii, Table 8, read-out: MBC90 1403
Description: as §1, §2

[15] = tested on: A. baumannii 1650 biofilm; test: biofilm eradication determination assay, strain 1650; type: cell-based, Acinetobacter baumannii; details: 90% biofilm eradication, Table 8
Method: as §3

[16] = tested on: A. baumannii 1403 biofilm; test: biofilm eradication determination assay, strain 1403; type: cell-based, Acinetobacter baumannii; details: 90% biofilm eradication, Table 8
Method: as §3

[17] = tested on: A. baumannii 1652 biofilm; test: biofilm eradication determination assay, strain 1652; type: cell-based, Acinetobacter baumannii; details: 90% biofilm eradication, Table 8
Method: as §3

[18] = tested on: A. baumannii 1649 biofilm; test: biofilm eradication determination assay, strain 1649; type: cell-based, Acinetobacter baumannii; details: 90% biofilm eradication, Table 8
Method: as §3

A. baumannii strain 1403 = type: cell-based, Acinetobacter baumannii; details: serial passage, 8 days, start 0.5× MIC
Method: An important attribute of novel antibiotics is the ability to fend off the development of resistance towards their effects. To assess this capacity, A. baumannii strains were incubated overnight with 0.5× MIC of each of the frontrunners. The next day cells were washed and used to inoculate fresh media that contained a two-fold increase in drug. This was repeated for a total of 8 days, alongside sulfamethoxazole (SMX) and trimethoprim (TMP) controls, both of which target the same pathway as our lead agents (FIG. 2).
In order to test potential resistance towards the quinazolines, a serial passage assay was performed alongside control compounds (Sulfamethoxazole and Trimethoprim), as described by us previously.^24 A. baumannii strain 1403 was grown overnight in LB media at 37° C. The next day cultures were diluted 1:100 in fresh media and seeded into a 96-well plate. Lead quinazolines or control agents were added to respective wells at half MIC concentrations. […] These were then grown overnight, and the procedure repeated for a total of eight days.

[19] = Tables 1, 3, 4, 5 and footnotes, read-out: 1649 MIC
[20] = Tables 1, 3, 4, 5 and footnotes, read-out: 1650 MIC
[21] = Tables 1, 3, 4, 5 and footnotes, read-out: 1651 MIC
[22] = Tables 1, 3, 4, 5 and footnotes, read-out: 1403 MIC
[23] = strain 1646, Tables 1, 3, 4, 5 and footnotes, read-out: 1646 MIC
[24] = Tables 1, 3, 4, 5 and footnotes, read-out: 1652 MIC

- MIC (A. baumannii 1649 [2]; [19]): 2 µM (≈ 0.693 µg/mL)
- MIC (A. baumannii 1649 [2]; lead quinazolines, Table 8, read-out: MIC 1649): 15 µM (≈ 5.2 µg/mL)
- MIC (A. baumannii 1650 [4]; [20]): 2 µM (≈ 0.693 µg/mL)
- MIC (A. baumannii 1650 [4]; lead quinazolines, Table 8, read-out: MIC 1650): 20 µM (≈ 6.93 µg/mL)
- MIC (A. baumannii 1651 [7]; [21]): 2 µM (≈ 0.693 µg/mL)
- MIC (A. baumannii 1651 [7]; lead quinazolines, Table 8, read-out: MIC 1651): 20 µM (≈ 6.93 µg/mL)
- MIC (A. baumannii 1403 [8]; [22]): 2 µM (≈ 0.693 µg/mL)
- MIC (A. baumannii 1403 [8]; lead quinazolines, Table 8, read-out: MIC 1403): 20 µM (≈ 6.93 µg/mL)
- MIC (A. baumannii 1646 [9]; Table 6, representative data for isolate 1646, read-out: MIC): 2 µM (≈ 0.693 µg/mL)
- MIC (A. baumannii 1646 [9]; [23]): 2 µM (≈ 0.693 µg/mL)
- MIC (A. baumannii 1646 [9]; strain 1646, lead quinazolines, Table 8, read-out: MIC 1646): 2 µM (≈ 0.693 µg/mL)
- MIC (A. baumannii): 2 µM (≈ 0.693 µg/mL)
- MIC (A. baumannii 1652 [13]; [24]): 10 µM (≈ 3.46 µg/mL)
- MIC (A. baumannii 1652 [13]; lead quinazolines, Table 8, read-out: MIC 1652): 20 µM (≈ 6.93 µg/mL)
SMILES: CNc1nc(NCc2ccccc2)nc2ccc(C3CCCCC3)cc12 [Compound 30, N^2-Benzyl-6-cyclohexyl-N^4-methylquinazoline-2,4-diamine]
- MBC (A. baumannii 1652 [1]): 17 µM (≈ 5.89 µg/mL)
- HepG2 cell viability (human HepG2 cells; at 25 μM (highest concentration tested)): 39%
- LD50(HepG2) (human HepG2 cells; human, 48 h): 11 µM
- MBC (A. baumannii 1650 [3]): 22 µM (≈ 7.62 µg/mL)
- MBC (A. baumannii 1649 [5]): 33 µM (≈ 11.4 µg/mL)
- MBC (A. baumannii 1646 [6]; Acinetobacter baumannii, 1646, strain 1646, Table 8 and text, read-out: MBC90 1646): 1.1 µM (≈ 0.381 µg/mL)
- MBC (A. baumannii 1646 [6]; Acinetobacter baumannii, Table 6, representative data for isolate 1646, read-out: MBC90): 1.1 µM (≈ 0.381 µg/mL)
- MBEC90 ([10]; Table 6, representative data for isolate 1646): 41.2 µM
- reduction in biofilm viability ([10]; at 50 μM, strain 1646): 4.2 log
- MBEC90 1646 ([10]; strain 1646, 90% biofilm eradication, Table 8 and text): 41 µM
- MBC (A. baumannii 1651 [11]): 28 µM (≈ 9.7 µg/mL)
- MBEC90 1651 [12]: 33 µM
- MBC (A. baumannii 1403 [14]): 32 µM (≈ 11.1 µg/mL)
- MBEC90 1650 [15]: 46 µM
- MBEC90 1403 [16]: 21 µM
- MBEC90 1652 [17]: >100 µM
- MBEC90 1649 [18]: 68 µM

SMILES: Cc1cc(NS(=O)(=O)c2ccc(N)cc2)no1 [SMX, Sulfamethoxazole, reference compound]
- HepG2 cell viability (human HepG2 cells; human, 48 h, 25 μM): 46%
- MIC (A. baumannii 1649 [2]; [19]): 118 µM (≈ 29.9 µg/mL)
- MIC (A. baumannii 1650 [4]; [20]): 118 µM (≈ 29.9 µg/mL)
- increase in MIC over the 8-day test period (A. baumannii strain 1403): 128 fold
- MIC (A. baumannii 1651 [7]; [21]): 118 µM (≈ 29.9 µg/mL)
- MIC (A. baumannii 1403 [8]; [22]): 138 µM (≈ 35 µg/mL)
- MIC (A. baumannii 1646 [9]; [23]): 118 µM (≈ 29.9 µg/mL)
- MIC (A. baumannii 1652 [13]; [24]): 118 µM (≈ 29.9 µg/mL)

SMILES: COc1cc(Cc2cnc(N)nc2N)cc(OC)c1OC [TMP, trimethoprim, reference compound]
- HepG2 cell viability (human HepG2 cells; human, 48 h, 25 μM): 45%
- MIC (A. baumannii 1649 [2]; [19]): 517 µM (≈ 150 µg/mL)
- MIC (A. baumannii 1650 [4]; [20]): 120 µM (≈ 34.8 µg/mL)
- increase in MIC over the 8-day test period (A. baumannii strain 1403): 64 fold
- MIC (A. baumannii 1651 [7]; [21]): 103 µM (≈ 29.9 µg/mL)
- MIC (A. baumannii 1403 [8]; [22]): 103 µM (≈ 29.9 µg/mL)
- MIC (A. baumannii 1646 [9]; [23]): 34 µM (≈ 9.87 µg/mL)
- MIC (A. baumannii 1652 [13]; [24]): 103 µM (≈ 29.9 µg/mL)
